Where a name gives a salt, the structure may show the parent alone. Read-outs that look alike come from different tables or passages of the source.
Test system: Acinetobacter baumannii ATCC17978
Experiment: 90% growth inhibitory concentration (IC90) determination, antimicrobial susceptibility testing
Assay type: cell-based
Details: read-out: ATCC 17978 IC90
Method: Antimicrobial Susceptibility Testing:
90% Growth Inhibitory Concentration (IC90) Determination
The in vitro antimicrobial activity of the compounds was determined according to the following procedure:
The assay used a 10-points Iso-Sensitest broth medium to measure quantitatively the in vitro activity of the compounds against Acinetobacter baumannii ATCC17961 and ATCC17978.
Stock compounds in DMSO were serially twofold diluted (e.g. range from 50 to 0.097 μM final concentration) in 384 wells microtiter plates and inoculated with 49 μl the bacterial suspension in Iso-Sensitest medium to have a final cell concentration of ˜5×10^(5) CFU/ml in a final volume/well of 50 ul/well. Microtiter plates were incubated at 35±2° C.
Bacterial cell growth was determined with the measurement of optical density at λ=600 nm each minutes over a time course of 16 h. Growth inhibition was calculated during the logarithmic growth of the bacterial cells with determination of the concentration inhibiting 50% (IC50) and 90% (IC90) of the growth.
Table 1 provides the 90% growth inhibitory concentrations (IC90) in micromoles per liter of the compounds of present invention obtained against the strain Acinetobacter baumannii ATCC17978.

[1] = ATCC17978, 90% growth inhibition, Iso-Sensitest broth, OD 600 nm over 16 h, 35±2° C.

IC90 [1] [nM]	Structure (SMILES)	IC90 (ATCC17978, 16 h) [nM]
996	Cc1cc(Nc2nccn3c(-c4ccc(OC(F)F)cc4)cnc23)ccc1C(=O)N1CCN(C(=O)N2CCOC(C[N+](C)(C)C)C2)CC1 (stereo not drawn) [Example 33, [4-[4-[4-[[3-[4-(Difluoromethoxy)phenyl]imidazo[1,2-a]pyrazin-8-yl]amino]-2-methyl-benzoyl]piperazine-1-carbonyl]morpholin-2-yl]methyl-trimethyl-ammonium Formate]	–
394	CCc1cc(Nc2nccn3c(-c4ccc(OC)c(F)c4F)cnc23)ccc1C(=O)NCCOCC[N+](C)(C)CC(=O)O [Example 50, Carboxymethyl-[2-[2-[[4-[[3-(2,3-difluoro-4-methoxy-phenyl)imidazo[1,2-a]pyrazin-8-yl]amino]-2-ethyl-benzoyl]amino]ethoxy]ethyl]-dimethyl-ammonium Formate]	–
566	CC[N+](CC)(CC)CCCNC(=O)c1ccc(Nc2nccn3c(-c4ccc(OC)c(F)c4F)cnc23)cc1Cl [Example 48, 3-[[2-Chloro-4-[[3-(2,3-difluoro-4-methoxy-phenyl)imidazo[1,2-a]pyrazin-8-yl]amino]benzoyl]amino]propyl-triethyl-ammonium Formate]	–
414	Cc1cc(Nc2nccn3c(-c4ccc(OC(F)F)cc4)cnc23)ccc1C(=O)N1CCN(C(=O)C[N+](C)(C)C)CC1 [Example 42, [2-[4-[4-[[3-[4-(Difluoromethoxy)phenyl]imidazo[1,2-a]pyrazin-8-yl]amino]-2-methyl-benzoyl]piperazin-1-yl]-2-oxo-ethyl]-trimethyl-ammonium Chloride]	–
431	Cc1cc(Nc2nccn3c(-c4ccc(OC(F)F)cc4)cnc23)ccc1C(=O)N1CCN(C(=O)NCC[N+](C)(C)C)CC1 [Example 36, 2-[[4-[4-[[3-[4-(Difluoromethoxy)phenyl]imidazo[1,2-a]pyrazin-8-yl]amino]-2-methyl-benzoyl]piperazine-1-carbonyl]amino]ethyl-trimethyl-ammonium Formate]	–
742	CC[N+]1(CC)CCC(CCN(C)C(=O)c2ccc(Nc3nccn4c(-c5ccc(OC(F)F)cc5)cnc34)cc2C)CC1 [Example 24, 4-(2-(4-((3-(4-(difluoromethoxy)phenyl)imidazo[1,2-a]pyrazin-8-yl)amino)-N,2-dimethylbenzamido)ethyl)-1,1-diethylpiperidin-1-ium Formate]	–
38.8	CCc1cc(Nc2nccn3c(-c4ccc(OC)c(F)c4F)cnc23)ccc1C(=O)NCCOCC[N+](C)(C)CC(N)=O [Example 52, (2-Amino-2-oxo-ethyl)-[2-[2-[[4-[[3-(2,3-difluoro-4-methoxy-phenyl)imidazo[1,2-a]pyrazin-8-yl]amino]-2-ethyl-benzoyl]amino]ethoxy]ethyl]-dimethyl-ammonium Formate]	–
658	Cc1cc(Nc2nccn3c(-c4ccc(OC(F)F)cc4)cnc23)ccc1C(=O)NCCOCC[N+](C)(C)C [Example 1, 2-(2-(4-((3-(4-(difluoromethoxy)phenyl)imidazo[1,2-a]pyrazin-8-yl)amino)-2-methylbenzamido)ethoxy)-N,N,N-trimethylethanaminium Iodide]	–
396	COc1ccc(-c2cnc3c(Nc4ccc5c(c4)CCN(CCOCC[N+](C)(C)C)C5=O)nccn23)c(F)c1F [Example 16, 2-[2-[6-[[3-(2,3-difluoro-4-methoxy-phenyl)imidazo[1,2-a]pyrazin-8-yl]amino]-1-oxo-3,4-dihydroisoquinolin-2-yl]ethoxy]ethyl-trimethyl-ammonium Formate]	–
246	CN(CCN1CC[N+](C)(C)CC1)C(=O)c1ccc(Nc2nccn3c(-c4ccc(OCC#N)c(F)c4F)cnc23)cc1Cl [Example 34, 2-Chloro-4-[[3-[4-(cyanomethoxy)-2,3-difluoro-phenyl]imidazo[1,2-a]pyrazin-8-yl]amino]-N-[2-(4,4-dimethylpiperazin-4-ium-1-yl)ethyl]-N-methyl-benzamide iodide]	–
405	CCc1cc(Nc2nccn3c(-c4ccc(OC)c(F)c4F)cnc23)ccc1C(=O)NCCOCC[N+](C)(C)CCCC(=O)O [Example 53, 3-Carboxypropyl-[2-[2-[[4-[[3-(2,3-difluoro-4-methoxy-phenyl)imidazo[1,2-a]pyrazin-8-yl]amino]-2-ethyl-benzoyl]amino]ethoxy]ethyl]-dimethyl-ammonium Formate]	–
165	CCc1cc(Nc2nccn3c(-c4ccc(OC)c(F)c4F)cnc23)ccc1C(=O)NCCOCC[N+](CC)(CC)CC [Example 40, 2-(2-(4-((3-(2,3-Difluoro-4-methoxyphenyl)imidazo[1,2-a]pyrazin-8-yl)amino)-2-ethylbenzamido)ethoxy)-N,N,N-triethylethan-1-aminium Formate]	–
446	Cc1cc(Nc2nccn3c(-c4ccc(OC(F)F)cc4)cnc23)ccc1C(=O)N(C)CCC1CC[N+](C)(C)CC1 [Example 19, 4-(2-(4-((3-(4-(difluoromethoxy)phenyl)imidazo[1,2-a]pyrazin-8-yl)amino)-N,2-dimethylbenzamido)ethyl)-1,1-dimethylpiperidin-1-ium Formate]	–
120	COc1ccc(-c2cnc3c(Nc4ccc(C(=O)N5CCN(C(=O)C[N+](C)(C)C)CC5)c(Cl)c4)nccn23)cc1F [Example 31, [2-[4-[2-Chloro-4-[[3-(3-fluoro-4-methoxyphenyl)imidazo[1,2-a]pyrazin-8-yl]amino]benzoyl]piperazin-1-yl]-2-oxoethyl]-trimethylazanium Formate]	–
383	COc1ccc(-c2cnc3c(Nc4ccc(C(=O)NCCC[N+](C)(C)C)c(Cl)c4)nccn23)c(F)c1F [Example 47, 3-[[2-Chloro-4-[[3-(2,3-difluoro-4-methoxy-phenyl)imidazo[1,2-a]pyrazin-8-yl]amino]benzoyl]amino]propyl-trimethyl-ammonium Formate]	–
1290	C[N+]1(CCOCCNC(=O)c2ccc(Nc3nccn4c(-c5ccc(OCC#N)c(F)c5F)cnc34)cc2Cl)CCNC(C(=O)O)C1 (stereo not drawn) [Example 17, 4-[2-[2-[[2-chloro-4-[[3-[4-(cyanomethoxy)-2,3-difluoro-phenyl]imidazo[1,2-a]pyrazin-8-yl]amino]benzoyl]amino]ethoxy]ethyl]-4-methyl-piperazin-4-ium-2-carboxylic acid Formate]	–
156	C[N+](C)(C)CCN1CCN(C(=O)c2ccc(Nc3nccn4c(-c5ccc(OCC#N)c(F)c5F)cnc34)cc2Cl)CC1 [Example 26, 2-[4-[2-chloro-4-[[3-[4-(cyanomethoxy)-2,3-difluorophenyl]imidazo[1,2-a]pyrazin-8-yl]amino]benzoyl]piperazin-1-yl]ethyl-trimethylazanium Iodide]	–
213	CN(CCC1CC[N+](C)(C)CC1)C(=O)c1ccc(Nc2nccn3c(-c4ccc(OCC#N)c(F)c4F)cnc23)cc1Cl [Example 38, 2-Chloro-4-[[3-[4-(cyanomethoxy)-2,3-difluoro-phenyl]imidazo[1,2-a]pyrazin-8-yl]amino]-N-[2-(1,1-dimethylpiperidin-1-ium-4-yl)ethyl]-N-methyl-benzamide 2,2,2-trifluoroacetate]	–
–	COc1ccc(-c2cnc3c(Nc4ccc(C(=O)N5CC[C@@H](C(=O)NCC[N+](C)(C)C)[C@H](O)C5)c(C)c4)nccn23)cc1F [Example 37, 2-[[(3S,4R)-1-[4-[[3-(3-fluoro-4-methoxy-phenyl)imidazo[1,2-a]pyrazin-8-yl]amino]-2-methyl-benzoyl]-3-hydroxy-piperidine-4-carbonyl]amino]ethyl-trimethyl-ammonium Formate]	4770
293	Cc1cc(Nc2nccn3c(-c4ccc(OC(F)F)cc4)cnc23)ccc1C(=O)N1CCC(CC[N+](C)(C)C)CC1 [Example 29, 2-(1-(4-((3-(4-(Difluoromethoxy)phenyl)imidazo[1,2-a]pyrazin-8-yl)amino)-2-methylbenzoyl)piperidin-4-yl)-N,N,N-trimethylethanaminium Formate]	–
148	COc1ccc(-c2cnc3c(Nc4ccc(C(=O)NCCOCC[N+](C)(C)C)c(Br)c4)nccn23)c(F)c1F [Example 44, 2-[2-[[2-bromo-4-[[3-(2,3-difluoro-4-methoxy-phenyl)imidazo[1,2-a]pyrazin-8-yl]amino]benzoyl]amino]ethoxy]ethyl-trimethyl-ammonium 2,2,2-trifluoroacetate]	–
605	CCc1cc(Nc2nccn3c(-c4ccc(Cl)c(F)c4F)cnc23)ccc1C(=O)NCCC[N+](C)(C)C [Example 28, 3-(4-((3-(4-Chloro-2,3-difluorophenyl)imidazo[1,2-a]pyrazin-8-yl)amino)-2-ethylbenzamido)-N,N,N-trimethylpropan-1-aminium Formate]	–
249	COc1ccc(-c2cnc3c(Nc4ccc(C(=O)N5CCC(C(=O)NCC[N+](C)(C)C)CC5)c(C)c4)nccn23)cc1F [Example 27, 2-(1-(4-((3-(3-Fluoro-4-methoxyphenyl)imidazo[1,2-a]pyrazin-8-yl)amino)-2-methylbenzoyl)piperidine-4-carboxamido)-N,N,N-trimethylethanaminium Formate]	–
238	C#CCOc1ccc(-c2cnc3c(Nc4ccc(C(=O)NCCOCC[N+](C)(C)C)c(CC)c4)nccn23)c(F)c1F [Example 15, 2-[2-[[4-[[3-(2,3-Difluoro-4-prop-2-ynoxy-phenyl)imidazo[1,2-a]pyrazin-8-yl]amino]-2-ethyl-benzoyl]amino]ethoxy]ethyl-trimethyl-ammonium 2,2,2-trifluoroacetate]	–

From patent US20230141600A1, “IMIDAZOPYRAZINE DERIVATIVES” (priority 2020, published 2023)
